Holding throughout (format): ADME, organism-based
Data set [1] has as its system Triticum aestivum. The data set is described as follows: Drug recovery in BavarianTriticum aestivum (wheat) samples at 10 ug/kg after 1 day by LC-MS analysis. Conditions: in vivo, 0.01 mg/kg, 24 h.
The subject of data set [2] is Triticum aestivum. As to the kind of experiment: Drug recovery in Bavarian Triticum aestivum (wheat) samples at 100 ug/kg after 1 day by LC-MS analysis. As to conditions: in vivo, 0.1 mg/kg, 24 h.
Data set [3] relates to Triticum aestivum. The data set is described as follows: Drug level in Bavarian Triticum aestivum (wheat) at 10 to 100 ug/kg after 1 day by LC-MS analysis. Conditions: in vivo, 24 h.

Molecules are shown by their SMILES.

Consider `C[C@H]1CCCC(=O)CCC/C=C/c2cc(O)cc(O)c2C(=O)O1` [ZEARALENONE], for which the values for the Drug recovery with Triticum aestivum [1] and in the data set with Triticum aestivum [2] were 32% and 89%, respectively. For the same compound, the Drug uptake with Triticum aestivum [3] turned out to be 11 µg/kg.
In the same order, the values of `C[C@H]1CCCC(=O)CCC/C=C/c2cc(O[C@@H]3O[C@H](CO)[C@@H](O)[C@H](O)[C@H]3O)cc(O)c2C(=O)O1` [Zearalenone-4-beta-D-glucopyranoside] are 67%, 69% and 17 µg/kg.

The record behind these values is ChEMBL document CHEMBL3045413, “Occurrence of zearalenone-4-beta-D-glucopyranoside in wheat” (J Agric Food Chem, 2002).
